Test results reported in PubChem BioAssay AID1963974 (Molecular Pharmacology Branch, DTP, NCI, 2024).

Tested on: 648629-189-R-J1-PDC spheroids with HUVEC/MSC, viability
Test: Anticancer human tumor 648629-189-R-J1-PDC patient-derived bladder carcinoma cell line growth inhibition [PI3K]
Conditions: for IC50: curve of first compound; for viability, T/C: stronger effect = lower value
How it was run: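 We assembled tumor spheroids that included a stromal compartment of HUVEC and MSCs, then exposed them to targeted agents alone and together with PI3K pathway inhibitors. Concentration series descended by half-log from clinically achievable Cmax levels. Viability served as the endpoint.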

[1] = second compound 0.00316 µM, first compound 0.0316 µM
[2] = second compound 0.00316 µM, first compound 0.1 µM
[3] = second compound 0.00316 µM, first compound 0.316 µM
[4] = second compound 0.00316 µM, first compound 1 µM
[5] = second compound 0.00316 µM, first compound 3.16 µM
[6] = second compound 0.00316 µM, first compound 10 µM
[7] = second compound 0.01 µM, first compound 0.0316 µM
[8] = second compound 0.01 µM, first compound 0.1 µM
[9] = second compound 0.01 µM, first compound 0.316 µM
[10] = second compound 0.01 µM, first compound 1 µM
[11] = second compound 0.01 µM, first compound 3.16 µM
[12] = second compound 0.01 µM, first compound 10 µM
[13] = second compound 0.0316 µM, first compound 0.0316 µM
[14] = second compound 0.0316 µM, first compound 0.1 µM
[15] = second compound 0.0316 µM, first compound 0.316 µM
[16] = second compound 0.0316 µM, first compound 1 µM
[17] = second compound 0.0316 µM, first compound 3.16 µM
[18] = second compound 0.0316 µM, first compound 10 µM
[19] = second compound 0.1 µM, first compound 0.0316 µM
[20] = second compound 0.1 µM, first compound 0.1 µM
[21] = second compound 0.1 µM, first compound 0.316 µM
[22] = second compound 0.1 µM, first compound 1 µM
[23] = second compound 0.1 µM, first compound 3.16 µM
[24] = second compound 0.1 µM, first compound 10 µM
[25] = second compound 0.316 µM, first compound 0.0316 µM
[26] = second compound 0.316 µM, first compound 0.1 µM
[27] = second compound 0.316 µM, first compound 0.316 µM
[28] = second compound 0.316 µM, first compound 1 µM
[29] = second compound 0.316 µM, first compound 3.16 µM
[30] = second compound 0.316 µM, first compound 10 µM
[31] = second compound 1 µM, first compound 0.0316 µM
[32] = second compound 1 µM, first compound 0.1 µM
[33] = second compound 1 µM, first compound 0.316 µM
[34] = second compound 1 µM, first compound 1 µM
[35] = second compound 1 µM, first compound 3.16 µM
[36] = second compound 1 µM, first compound 10 µM
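Note: spheroids exposed to agents for seven days before reading.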
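Throughout, for viability, T/C: percent of vehicle control luminescence where 100% = DMSO treated spheroids.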

With `C#Cc1c(F)ccc2cc(O)cc(-c3ncc4c(N5CC6CCC(C5)N6)nc(OCC56CCCN5CC(F)C6)nc4c3F)c12` (stereo not drawn) + CC(Nc1ccc2c(c1)OCCn1cc(N3C(=O)OCC3C(F)F)nc1-2)C(N)=O the IC50 (second compound 0.00316 µM) was > 10 µM, the IC50 (second compound 0.01 µM) was > 10 µM and the IC50 (second compound 0.0316 µM) was > 10 µM. The IC50 (second compound 0.1 µM) was > 10 µM, the IC50 (second compound 0.316 µM) was > 10 µM and the IC50 (second compound 1 µM) was > 10 µM. For the same molecule, the viability, T/C [1] was 105%, the viability, T/C [2] was 96.2% and the viability, T/C [3] was 109%. The viability, T/C [4] was 96.6%, the viability, T/C [5] was 120% and the viability, T/C [6] was 102%. It also gave a viability, T/C [7] of 97.9%, a viability, T/C [8] of 99.9% and a viability, T/C [9] of 96.3%. For the same molecule, the viability, T/C [10] was 97%, the viability, T/C [11] was 106% and the viability, T/C [12] was 85.8%. For the same molecule, the viability, T/C [13] was 105%, the viability, T/C [14] was 100% and the viability, T/C [15] was 93.2%. It also gave a viability, T/C [16] of 99.1%, a viability, T/C [17] of 103% and a viability, T/C [18] of 92.5%. For the same molecule, the viability, T/C [19] was 92.7%, the viability, T/C [20] was 85.5% and the viability, T/C [21] was 81.7%. The viability, T/C [22] was 90%, the viability, T/C [23] was 95.4% and the viability, T/C [24] was 89.3%. The viability, T/C [25] was 82.3%, the viability, T/C [26] was 75% and the viability, T/C [27] was 71.7%. For the same molecule, the viability, T/C [28] was 74.8%, the viability, T/C [29] was 80.8% and the viability, T/C [30] was 75.3%. The viability, T/C [31] was 57.5%, the viability, T/C [32] was 66.4% and the viability, T/C [33] was 63.2%. The viability, T/C [34] was 58.7%, the viability, T/C [35] was 64.5% and the viability, T/C [36] was 57.4%.
`CC1(C)CCC(Nc2ncc(C(F)(F)F)c(-c3c[nH]c4c(P(C)(C)=O)c(C#N)ccc34)n2)CN1` (stereo not drawn) + CC(Nc1ccc2c(c1)OCCn1cc(N3C(=O)OCC3C(F)F)nc1-2)C(N)=O was tested, and the IC50 (second compound 0.00316 µM) was < 0.0316 µM, the IC50 (second compound 0.01 µM) was < 0.0316 µM and the IC50 (second compound 0.0316 µM) was < 0.0316 µM. The IC50 (second compound 0.1 µM) was < 0.0316 µM, the IC50 (second compound 0.316 µM) was < 0.0316 µM and the IC50 (second compound 1 µM) was < 0.0316 µM. It also gave a viability, T/C [1] of 27.7%, a viability, T/C [2] of 27.2% and a viability, T/C [3] of 26.8%. It also gave a viability, T/C [4] of 35.4%, a viability, T/C [5] of 38.7% and a viability, T/C [6] of 2.42%. The viability, T/C [7] was 25.3%, the viability, T/C [8] was 25.8% and the viability, T/C [9] was 26.3%. It also gave a viability, T/C [10] of 31.1%, a viability, T/C [11] of 38.2% and a viability, T/C [12] of 3.09%. For the same molecule, the viability, T/C [13] was 26.6%, the viability, T/C [14] was 23.4% and the viability, T/C [15] was 26.6%. It also gave a viability, T/C [16] of 28.5%, a viability, T/C [17] of 37.6% and a viability, T/C [18] of 3%. It also gave a viability, T/C [19] of 24.1%, a viability, T/C [20] of 23.4% and a viability, T/C [21] of 26.1%. For the same molecule, the viability, T/C [22] was 23.4%, the viability, T/C [23] was 33.1% and the viability, T/C [24] was 2.67%. The viability, T/C [25] was 23.4%, the viability, T/C [26] was 25.8% and the viability, T/C [27] was 23.8%. The viability, T/C [28] was 28.9%, the viability, T/C [29] was 29.8% and the viability, T/C [30] was 2.95%. It also gave a viability, T/C [31] of 19.8%, a viability, T/C [32] of 22.6% and a viability, T/C [33] of 26.1%. The viability, T/C [34] was 23.1%, the viability, T/C [35] was 27.2% and the viability, T/C [36] was 1.52%.
For `CNC(=O)c1ccc(N2C(=S)N(c3ccc(C#N)c(C(F)(F)F)c3)C(=O)C2(C)C)cc1F` + CC(Nc1ncnc2nc[nH]c12)c1cc2cccc(Cl)c2c(=O)n1-c1ccccc1, the IC50 (second compound 0.0316 µM) was > 10 µM, the IC50 (second compound 0.1 µM) was > 10 µM and the IC50 (second compound 0.316 µM) was > 10 µM. The IC50 (second compound 1 µM) was > 10 µM, the IC50 (second compound 3.16 µM) was > 10 µM and the IC50 (second compound 10 µM) was > 10 µM. The viability, T/C [13] was 113%, the viability, T/C [14] was 107% and the viability, T/C [15] was 101%. The viability, T/C [16] was 102%, the viability, T/C [17] was 102% and the viability, T/C [18] was 87.4%. It also gave a viability, T/C [19] of 113%, a viability, T/C [20] of 98.9% and a viability, T/C [21] of 96.6%. The viability, T/C [22] was 97.8%, the viability, T/C [23] was 92.8% and the viability, T/C [24] was 80.2%. The viability, T/C [25] was 105%, the viability, T/C [26] was 111% and the viability, T/C [27] was 93.5%. For the same molecule, the viability, T/C [28] was 104%, the viability, T/C [29] was 118% and the viability, T/C [30] was 78.9%. For the same molecule, the viability, T/C [31] was 99%, the viability, T/C [32] was 101% and the viability, T/C [33] was 100%. For the same molecule, the viability, T/C [34] was 97.1%, the viability, T/C [35] was 105% and the viability, T/C [36] was 88.5%. The viability, T/C (second compound 3.16 µM, first compound 0.0316 µM) was 92%, the viability, T/C (second compound 3.16 µM, first compound 0.1 µM) was 109% and the viability, T/C (second compound 3.16 µM, first compound 0.316 µM) was 93.9%. The viability, T/C (second compound 3.16 µM, first compound 1 µM) was 95.3%, the viability, T/C (second compound 3.16 µM, first compound 3.16 µM) was 95.5% and the viability, T/C (second compound 3.16 µM, first compound 10 µM) was 90.8%. For the same molecule, the viability, T/C (second compound 10 µM, first compound 0.0316 µM) was 82.7%, the viability, T/C (second compound 10 µM, first compound 0.1 µM) was 87.1% and the viability, T/C (second compound 10 µM, first compound 0.316 µM) was 100%. It also gave a viability, T/C (second compound 10 µM, first compound 1 µM) of 91.1%, a viability, T/C (second compound 10 µM, first compound 3.16 µM) of 87.7% and a viability, T/C (second compound 10 µM, first compound 10 µM) of 69%.
In the case of `Cn1cnc2c(F)c(Nc3ccc(Br)cc3Cl)c(C(=O)NOCCO)cc21` + CC(Nc1ncnc2nc[nH]c12)c1cc2cccc(Cl)c2c(=O)n1-c1ccccc1, the IC50 (second compound 0.0316 µM) is reported as > 3 µM, the IC50 (second compound 0.1 µM) is reported as > 3 µM and the IC50 (second compound 0.316 µM) is reported as > 3 µM. The IC50 (second compound 1 µM) was > 3 µM, the IC50 (second compound 3.16 µM) was > 3 µM and the IC50 (second compound 10 µM) was > 3 µM. It also gave a viability, T/C (second compound 0.0316 µM, first compound 0.00949 µM) of 101%, a viability, T/C (second compound 0.0316 µM, first compound 0.03 µM) of 86.2% and a viability, T/C (second compound 0.0316 µM, first compound 0.0949 µM) of 84%. For the same molecule, the viability, T/C (second compound 0.0316 µM, first compound 0.3 µM) was 101%, the viability, T/C (second compound 0.0316 µM, first compound 0.949 µM) was 93.6% and the viability, T/C (second compound 0.0316 µM, first compound 3 µM) was 81.6%. The viability, T/C (second compound 0.1 µM, first compound 0.00949 µM) was 97.1%, the viability, T/C (second compound 0.1 µM, first compound 0.03 µM) was 93.6% and the viability, T/C (second compound 0.1 µM, first compound 0.0949 µM) was 102%. It also gave a viability, T/C (second compound 0.1 µM, first compound 0.3 µM) of 95.5%, a viability, T/C (second compound 0.1 µM, first compound 0.949 µM) of 107% and a viability, T/C (second compound 0.1 µM, first compound 3 µM) of 90.1%. It also gave a viability, T/C (second compound 0.316 µM, first compound 0.00949 µM) of 95.8%, a viability, T/C (second compound 0.316 µM, first compound 0.03 µM) of 101% and a viability, T/C (second compound 0.316 µM, first compound 0.0949 µM) of 94%. The viability, T/C (second compound 0.316 µM, first compound 0.3 µM) was 114%, the viability, T/C (second compound 0.316 µM, first compound 0.949 µM) was 105% and the viability, T/C (second compound 0.316 µM, first compound 3 µM) was 79.2%. The viability, T/C (second compound 1 µM, first compound 0.00949 µM) was 105%, the viability, T/C (second compound 1 µM, first compound 0.03 µM) was 100% and the viability, T/C (second compound 1 µM, first compound 0.0949 µM) was 94.9%. It also gave a viability, T/C (second compound 1 µM, first compound 0.3 µM) of 98.9%, a viability, T/C (second compound 1 µM, first compound 0.949 µM) of 88.3% and a viability, T/C (second compound 1 µM, first compound 3 µM) of 88.2%. For the same molecule, the viability, T/C (second compound 3.16 µM, first compound 0.00949 µM) was 103%, the viability, T/C (second compound 3.16 µM, first compound 0.03 µM) was 101% and the viability, T/C (second compound 3.16 µM, first compound 0.0949 µM) was 94.2%. For the same molecule, the viability, T/C (second compound 3.16 µM, first compound 0.3 µM) was 108%, the viability, T/C (second compound 3.16 µM, first compound 0.949 µM) was 89.2% and the viability, T/C (second compound 3.16 µM, first compound 3 µM) was 84.4%. For the same molecule, the viability, T/C (second compound 10 µM, first compound 0.00949 µM) was 93.2%, the viability, T/C (second compound 10 µM, first compound 0.03 µM) was 80.3% and the viability, T/C (second compound 10 µM, first compound 0.0949 µM) was 92.1%. It also gave a viability, T/C (second compound 10 µM, first compound 0.3 µM) of 92.8%, a viability, T/C (second compound 10 µM, first compound 0.949 µM) of 79% and a viability, T/C (second compound 10 µM, first compound 3 µM) of 68.6%.
